Laboratory results from patent US9598365B2, “Method for synthesizing cycloalkanyl[b]indoles, cycloalkanyl[b]benzofurans, cycloalkanyl[b]benzothiophenes, compounds and methods of use” (Trustees of Dartmouth College, priority 2012, dated 2017).
“And” between values parts separate entries of the source, which are not always exact repeats. Equal values may be shown once.

Key:
hGPR119 = biological target: T1, hGPR119 (Homo sapiens, UniProt Q8TDV5); assay: GPR119 receptor agonist, hGPR119 agonism; format: cell-based; details: @ 10 μM
T1 sequence (Q8TDV5 1-335): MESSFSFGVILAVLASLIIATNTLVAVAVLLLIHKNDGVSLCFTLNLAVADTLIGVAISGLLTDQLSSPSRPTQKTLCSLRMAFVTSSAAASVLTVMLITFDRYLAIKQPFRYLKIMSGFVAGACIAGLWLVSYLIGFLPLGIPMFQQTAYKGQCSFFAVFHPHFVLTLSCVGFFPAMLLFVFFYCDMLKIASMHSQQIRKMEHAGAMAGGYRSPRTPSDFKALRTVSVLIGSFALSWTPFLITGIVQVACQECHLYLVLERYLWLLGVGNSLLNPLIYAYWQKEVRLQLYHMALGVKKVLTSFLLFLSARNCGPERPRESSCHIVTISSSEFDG
Excerpt: (§1) Selected compounds of this invention were screened for K-Ras Wnt synthetic lethal, anti-angiogenic activity, Wnt pathway modulatory activity, insulin and GLP-1 secretion modulatory activity, GPR119 receptor agonist activity, mGlu2R antagonist activity, CGRP receptor antagonist activity, Apelin receptor agonist activity and hexokinase 2 inhibitory activity using the PD^2 and TD^2 Screening Panel (Eli Lilly & Company). See Lee, et al. (2011) J. Biomol. Screen. 16:588-602.

RKO = assay: K-Ras Wnt synthetic lethal, RKO KrasSL; format: cell-based; details: Homo sapiens, average of three independent experiments, read-out: RKO KrasSL % Inhibit
Excerpt: as §1

[1] = Plasma compound exposure after oral dosing in mice; format: in vivo, Mice (male C57BL/6); details: male, C57BL/6, mouse, plasma, oral 100 mg/kg, 30 minutes post-dose, read-out: mean (±standard deviation) plasma levels
Protocol: (§2) Mice (male C57BL/6, 8-10 weeks of age) were fasted overnight by being placed in a clean cage without food. The next day, all mice were weighed and assigned to groups of similar body weights. Test compounds were formulated in 1% HEC, 0.25% TWEEN 80, 0.05% antifoam (vehicle control). Compounds 11ls and llu were orally dosed (100 mg/kg) and cardiac sticks were done on CO2 euthanized mice at 30 minutes post-dose. Blood (500+μL whole blood) from the cardiac stick was placed in chilled EDTA-plasma tubes with inhibitors, DPP4 inhibitor (5 μL/500 μL blood) and aprotinin (bovine lung, […]/500 μL blood), and stored on ice. Plasma was separated by centrifugation and aliquoted for compound exposure to total GIP and GLP-1 (X-36 amide). Plates for compound exposure were analyzed for absorption, distribution, metabolism, and excretion, while conventional kits were used for GLP-1 (x-36) amide (Mesoscale) and GIP (Millipore) analyses.

hApelin = biological target: T2, hApelin (Homo sapiens, UniProt P35414); assay: Apelin receptor agonist, hApelin agonism; format: cell-based; details: @ 30 μM
T2 sequence (P35414 1-380): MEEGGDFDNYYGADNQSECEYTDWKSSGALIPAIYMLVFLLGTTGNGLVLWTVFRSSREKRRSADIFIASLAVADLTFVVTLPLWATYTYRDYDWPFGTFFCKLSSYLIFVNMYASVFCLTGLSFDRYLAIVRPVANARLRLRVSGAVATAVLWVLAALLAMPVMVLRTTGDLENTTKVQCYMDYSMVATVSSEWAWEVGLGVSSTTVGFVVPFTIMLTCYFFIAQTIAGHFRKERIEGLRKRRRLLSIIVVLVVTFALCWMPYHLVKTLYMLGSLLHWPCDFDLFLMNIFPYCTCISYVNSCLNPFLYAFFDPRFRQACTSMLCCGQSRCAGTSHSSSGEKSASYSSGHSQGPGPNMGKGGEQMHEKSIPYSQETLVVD
Excerpt: as §1

Insulin Secretion = assay: Insulin secretion, Secretion Hi Gluc; format: cell-based
Excerpt: as §1

Angio Tube Area = assay: Anti-angiogenic activity, Angio Tube Area; format: cell-based; details: read-out: Angio Tube Area % Inhibit
Excerpt: as §1

Wnt Pathway = assay: Wnt pathway modulatory activity, Osteo bCat; format: cell-based
Excerpt: as §1

SNU-C1 = assay: K-Ras Wnt synthetic lethal, SNU-C1 KrasSL; format: cell-based; details: Homo sapiens, read-out: SNU-C1 KrasSL % Inhibit
Excerpt: as §1

GIP = assay: Plasma GIP response to oral compound in mice; format: in vivo, Mice (male C57BL/6); details: oral 100 mg/kg, plasma 30 minutes post-dose
Protocol: as §2

hCGRP1 = hCGRP1 (Homo sapiens, UniProt O60894+Q16602); assay: CGRP receptor antagonist, hCGRP1 antagonism; format: cell-based
Sequence of hCGRP1 (Q16602 23-461): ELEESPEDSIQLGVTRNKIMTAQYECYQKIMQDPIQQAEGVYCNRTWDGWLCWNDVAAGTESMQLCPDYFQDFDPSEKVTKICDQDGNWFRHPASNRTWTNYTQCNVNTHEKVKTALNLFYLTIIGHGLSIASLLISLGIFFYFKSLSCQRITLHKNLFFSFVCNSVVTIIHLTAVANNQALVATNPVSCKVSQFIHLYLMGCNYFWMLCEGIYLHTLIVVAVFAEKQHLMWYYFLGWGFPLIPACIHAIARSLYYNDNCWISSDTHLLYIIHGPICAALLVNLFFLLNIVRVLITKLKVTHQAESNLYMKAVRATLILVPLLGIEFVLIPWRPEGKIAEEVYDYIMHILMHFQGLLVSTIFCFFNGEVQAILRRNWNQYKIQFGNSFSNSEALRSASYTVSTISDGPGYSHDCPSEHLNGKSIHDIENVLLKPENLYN
Sequence of hCGRP1 (O60894 27-148 partner): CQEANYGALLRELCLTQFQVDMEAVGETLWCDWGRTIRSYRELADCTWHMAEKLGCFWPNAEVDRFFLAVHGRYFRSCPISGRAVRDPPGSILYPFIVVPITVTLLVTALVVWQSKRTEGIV
Excerpt: as §1

Pituitary Cells = assay: Secondary assay, pituitary cells growth hormone secretion; format: cell-based; details: @ 3.3 μM
Protocol: (§3) In light of the above results, additional compounds (Table 7) were prepared and phenotypic assays were carried out using hNCI-H716 and mSTC-1 cell lines to monitor GLP-1 secretion (single point (SP) and concentration response curves (CRC)) (Table 8), as well as a secondary assay with pituitary cells (Table 9).

hNCI-H716 [2] = assay: hNCI basal LDH secretion; format: cell-based; details: read-out: Primary CRC (EC50, μM) hNCI Basal
Protocol: as §3

Co1o320 = assay: K-Ras Wnt synthetic lethal, Co1o320 KrasSL; format: cell-based; details: read-out: Co1o320 KrasSL % Inhibit
Excerpt: as §1

HCT116 = assay: K-Ras Wnt synthetic lethal, HCT116 KrasSL; format: cell-based; details: Homo sapiens, HCT-116, read-out: HCT116 KrasSL % Inhibit
Excerpt: as §1

hMGLUR2 = hMGLUR2 (Homo sapiens, UniProt Q14416); assay: mGlu2R antagonist, hMGLUR2; format: cell-based
Sequence of hMGLUR2 (Q14416 19-872): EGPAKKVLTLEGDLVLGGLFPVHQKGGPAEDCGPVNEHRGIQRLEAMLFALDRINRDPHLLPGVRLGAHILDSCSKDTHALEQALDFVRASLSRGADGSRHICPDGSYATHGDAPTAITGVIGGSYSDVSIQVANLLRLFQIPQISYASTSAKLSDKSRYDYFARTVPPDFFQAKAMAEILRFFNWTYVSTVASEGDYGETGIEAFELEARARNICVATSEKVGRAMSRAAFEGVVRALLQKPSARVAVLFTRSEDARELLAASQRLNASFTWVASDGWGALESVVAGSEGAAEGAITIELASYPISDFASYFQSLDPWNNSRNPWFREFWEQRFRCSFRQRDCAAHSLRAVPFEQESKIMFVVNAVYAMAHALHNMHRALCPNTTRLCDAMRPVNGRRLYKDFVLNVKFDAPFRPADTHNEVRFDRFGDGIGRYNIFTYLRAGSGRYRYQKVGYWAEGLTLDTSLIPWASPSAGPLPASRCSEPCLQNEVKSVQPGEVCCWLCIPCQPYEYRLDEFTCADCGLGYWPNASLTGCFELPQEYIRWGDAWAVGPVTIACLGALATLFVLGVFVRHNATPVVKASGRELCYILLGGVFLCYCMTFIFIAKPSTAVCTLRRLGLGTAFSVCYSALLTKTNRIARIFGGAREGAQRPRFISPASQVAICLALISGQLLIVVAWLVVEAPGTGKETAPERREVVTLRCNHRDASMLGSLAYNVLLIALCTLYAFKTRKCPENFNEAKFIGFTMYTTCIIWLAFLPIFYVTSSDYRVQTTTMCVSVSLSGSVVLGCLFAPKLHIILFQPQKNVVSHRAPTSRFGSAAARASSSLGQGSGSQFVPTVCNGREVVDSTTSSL
Excerpt: as §1

GLP-1 (X-36 amide) = assay: Plasma GLP-1 response to oral compound in mice; format: in vivo, Mice (male C57BL/6); details: oral 100 mg/kg, plasma 30 minutes post-dose
Protocol: as §2

hNCI-H716 [3] = assay: hNCI-H716 GLP-1 secretion; format: cell-based
Excerpt: as §1, §3

hGPR119 agonism % Stimulation (hGPR119): −5.1%
concentration at 30 min [1]: 412 ± 88.2 ng/mL
hApelin agonism % Stimulation (hApelin): −46.2%
inhibition at 30 µM (hCGRP1): 77.1%
EC50 (hNCI-H716 [2]): > 40 µM
inhibition at 50 µM (hMGLUR2): -20.4%
EC50 (hNCI-H716 [3]; GLP-1 secretion, concentration response curve, read-out: Primary CRC (EC50, μM) hNCI): 34.8 µM and 33.5 µM and 23.2 µM and > 40 µM
EC50 (hNCI-H716 [3]; average of three independent experiments, read-out: hNCI GLP-1 Secretion EC50): 34.8 µM
EC50 (hNCI-H716 [3]; secretion and/or production of GLP-1, read-out: EC50 values (Table 6)): 35 µM
Compound: CC1(C)c2c([nH]c3ccc(Cl)cc23)C2C=CC1C2 (stereo not shown) [Compound 11s]
inhibition at 0.2 µM (RKO; @ 0.2 μM): -2.8%
inhibition at 2 µM (RKO; @ 2 μM): 14.4%
inhibition at 20 µM (RKO; @ 20 μM): 102%
Secretion Hi Gluc % Stimulation (Insulin Secretion; @ 2 μM): −1.2%
Secretion Hi Gluc % Stimulation (Insulin Secretion; @ 10 μM): 15.8%
inhibition at 2 µM (Angio Tube Area; @ 2 μM): 21.7%
inhibition at 10 µM (Angio Tube Area; @ 10 μM): 21.8%
Osteo bCat % Stimulation (Wnt Pathway; @ 2 μM): 1.3%
Osteo bCat % Stimulation (Wnt Pathway; @ 10 μM): 9.3%
inhibition at 0.2 µM (SNU-C1; @ 0.2 μM): 15.7%
inhibition at 2 µM (SNU-C1; @ 2 μM): 5.5%
inhibition at 20 µM (SNU-C1; @ 20 μM): 106%
Avg. GIP (pg/mL) ±SEM (GIP): 23.42 ± 7.44 pg/mL
Pituitary Cells (Growth Hormone Secretion, % Stimulation) (Pituitary Cells): −10.0% and −17.7% and −18.6%
inhibition at 0.2 µM (Co1o320; @ 0.2 μM): 33.3%
inhibition at 2 µM (Co1o320; @ 2 μM): 15.8%
inhibition at 20 µM (Co1o320; @ 20 μM): 150%
inhibition at 0.2 µM (HCT116; @ 0.2 μM): 2.3%
inhibition at 2 µM (HCT116; @ 2 μM): -38%
inhibition at 20 µM (HCT116; @ 20 μM): 96.4%
Avg. GLP-1 (pg/mL) ±SEM (GLP-1 (X-36 amide)): 5.52 ± 1.18 pg/mL
activation at 2 µM (hNCI-H716 [3]; 2 μM, GLP-1 secretion, single point, read-out: Primary SP hNCI (% Stim.)): -1.7%
activation at 20 µM (hNCI-H716 [3]; 20 μM, GLP-1 secretion, single point, read-out: Primary SP hNCI (% Stim.)): 108%
hNCI GLP-1 Secretion % Stimulation (hNCI-H716 [3]; @ 2 μM): −1.7%
hNCI GLP-1 Secretion % Stimulation (hNCI-H716 [3]; @ 20 μM): 108%
